Source: US20240261302A1, “METHODS OF TREATING NEURODEGENERATIVE DISEASES OR CONDITIONS” (FloraScience Inc., priority 2023, published 2024)
Entries after “also recorded” stand apart in the source; their conditions may differ.

What was measured:
HT22 cells [1] = assay: MitoTracker Assay (mitochondrial mass); assay type: cell-based, mouse
Procedure: MitoTracker Assay. HT22 cells were seeded onto 96-well black walled plates at a density of 5,000 cells/well in DMEM supplemented with 10% FBS and 1% antibiotics. After the desired treatments, MitoTracker Orange CM−H2TMRos (Ex/Em=554/576 nm) and Hoechst 33342 (Ex/Em=360/460 nm) dyes were added to the cells and incubated under the same culture condition for 2 hr. Fluorescence was measured on a SpectraMax M5 microplate reader. Experiments were performed according to the manufacturer's instructions. Data were normalized for total protein/well. Each condition was analyzed in sixteen wells per independent experiment (n=16). Results were presented as the percentage of the controls with vehicle alone. Results were verified by live-cell imaging under a fluorescence microscope.

HT22 mt-GFP WT cells = assay: Cell viability after RSL3 with/without FCCP (CyQUANT DNA-based assay, fluorescence microscopy), mt-GFP WT cells; parameters: species or system mouse
HT22 cells [2] = assay: Mitochondrial Membrane Potential Assay (JC-10) in HT22 cells; assay type: cell-based, mouse; settings: 5 μM, 4 hr, p<0.0001
Procedure: Mitochondrial Membrane Potential Assay. Cells seeded at 5,000 cells/well onto 96-well black walled plates were treated with test compounds at the desired concentrations under the culture condition described above. The mitochondrial uncoupler FCCP at 2 μM was used as a reference control. After the desired treatments for 4 hr, the cells were subjected to a JC-10 mitochondrial membrane potential assay according to the manufacturer's instruction. Fluorescence intensities (Ex/Em=490/525 nm, and Ex/Em=540/590 nm) of each well were monitored on a SpectraMax M5 microplate reader. The ratio of fluorescence intensity (590/525 nm) was used to determine the mitochondrial membrane potential (ΔΨm). Decreasing ratios indicate mitochondrial membrane depolarization. Samples were analyzed in eight to sixteen wells per independent experiment (n=8-16). Results were verified by live-cell imaging under a fluorescence microscope.

HT22 cells [3] = assay: Relative mtDNA copy number (qPCR); assay type: cell-based, mouse
Procedure: Quantitative Reverse Transcription PCR (qPCR) Analysis. HT22 cells were seeded onto 60 mm dishes at a density of 140,000 cells/dish in DMEM supplemented with 10% FBS and 1% antibiotics. After the desired treatments, total RNA was extracted using the RNeasy Mini Kit (Qiagen, Cat #74104, Hilden, Germany). cDNA was synthesized using SuperScript III First-Strand Synthesis System for qPCR (Invitrogen, Cat #18080051, Carlsbad, CA). Amplification was performed with TaqMan Fast Advanced Master Mix (ThermoFisher Scientific, Cat #4444556, Carlsbad, CA) using a QuantStudio 3 Real-Time PCR Systems (ThermoFisher Scientific, CA). The primer pairs were used as follows: CNR1 (Forward, 5′-[…]-3′; Reverse, 5′-[…]-3′); CNR2 (Forward, 5′-[…]-3′; Reverse, 5′-GCCGGGAGGACAGGATAAT-3′). The expression of the GAPDH gene was measured for normalization. The mouse Mitochondrial DNA Copy Number Kit was used (Detroit R&D, Cat #MCN3, Detroit, MI) according to the manufacturer's instructions. Relative fold change was calculated using the 2^(−ΔΔCt) method. Samples were analyzed in three dishes per independent experiment (n=3).

HT22 cells [4] = assay: Cellular Lipid Peroxidation Measurement (C11-BODIPY); assay type: cell-based, mouse
Procedure: Lipid Peroxidation MeasurementsHT22 cells were seeded onto 96-well black walled plates at a density of 3,000 cells/well in DMEM supplemented with 10% FBS and 1% antibiotics. After the desired treatments, cells were labeled with 2.5 μM C11-BODIPY 581/591 (oxidized form Ex/Em=488/520 nm) at 37° C. for 2 hr. Experiments were performed according to the manufacturer's instructions. Fluorescence was measured on a SpectraMax M5 microplate reader. Data were normalized for total protein/well. Each condition was analyzed in twelve wells per independent experiment (n=12). Results were presented as the percentage of the controls with vehicle alone. Results were verified by live-cell imaging under a fluorescence microscope.

primary cortical neurons = assay: Neuroprotection against RSL3 in primary neurons; assay type: cell-based, rat; settings: CBN 10 μM, data not shown
Procedure: Embryonic Cortical Neuron Extraction. Primary cortical neurons were prepared from embryonic day 17 Sprague-Dawley rat pups and used at 7 days in vitro as previously described (7 DIV). Neurons were dissociated from the cortex and maintained in Neurobasal-A medium (Invitrogen, Cat #10888022, Carlsbad, CA) supplemented with B-27 Supplement (Invitrogen, Cat #17504044, Carlsbad, CA), 2 mM glutamine, and 1% antibiotics including penicillin and streptomycin. Cell cultures were incubated at 37° C. in a fully humidified atmosphere containing 10% CO2. All animal procedures were approved by the Salk Institute's Institutional Animal Care and Use Committee.

HT22 cells [5] = assay: Calcium Measurements (Fluo-4 AM, Rhod-2 AM); assay type: cell-based, mouse
Procedure: Calcium Measurements. HT22 cells were seeded onto 96-well black walled plates at a density of 5,000 cells/well in DMEM supplemented with 10% FBS and 1% antibiotics. After the desired treatments, Ca^2+ levels were detected with Fluo-4 AM (Ex/Em=494/516 nm) and Rhod-2 AM (Ex/Em=552/581 nm) calcium indicator dyes specific to cytosol and mitochondria, respectively. Fluorescence was measured on a SpectraMax M5 microplate reader. Experiments were performed according to the manufacturer's instructions. Data were normalized for total protein/well. Each condition was analyzed in sixteen wells per independent experiment (n=16). Results were presented as the percentage of the controls with vehicle alone. Results were verified by live-cell imaging under a fluorescence microscope.

[6] = system: HT22 mt-GFP/mCherry-Parkin cells; assay: Cell viability after RSL3 with/without FCCP (CyQUANT DNA-based assay, fluorescence microscopy), mt-GFP/mCherry-Parkin cells; parameters: species or system mouse
[7] = FCCP 24 hr, CBN additional 16 hr

## CCCCCc1cc(O)c2c(c1)OC(C)(C)c1ccc(C)cc1-2 [CBN, 6,6,9-Trimethyl-3-pentyl-benzo[c]chromen-1-ol]
HT22 cells [1]; 5 μM, 16 hr, vs control group
  increase of MitoTracker fluorescence (mitochondrial mass): 4.9%
HT22 cells [1]; RSL3-induced oxytosis/ferroptosis
  mitochondrial mass with RSL3: preserve the mitochondrial mass at the control level
HT22 mt-GFP WT cells; 16 hr
  protection against RSL3-induced cell death, no FCCP pretreatment: strong and equivalent protection
HT22 mt-GFP WT cells; FCCP 5 μM 24 hr, then 16 hr
  protection against RSL3 after FCCP pretreatment: protected; also recorded: protective
HT22 mt-GFP WT cells; [7]
  cell numbers after FCCP pretreatment, co-treatment with compound: did not further change the cell numbers
HT22 cells [2]
  decrease of mitochondrial membrane potential (ΔΨm): approximately 17%
HT22 cells [3]; 50 nM RSL3, 16 hr
  mtDNA copy number with RSL3: sustain mtDNA at the control level
HT22 cells [3]; 5 μM
  mtDNA copy number, compound alone: did not induce significant changes
HT22 cells [4]; 50 nM RSL3, 16 hr, p<0.0001
  RSL3-induced cellular lipid peroxidation: effectively suppressed
HT22 cells [4]; CBN 5 μM, ferrostatin 10 μM, 16 hr
  basal cellular lipid peroxidation, compound alone: neither CBN (5 μM) nor ferrostatin (10 μM) alone changed basal levels of lipid peroxidation
Primary cortical neurons
  neuroprotection against 50 nM RSL3: ~100%
HT22 cells [5]; 5 μM, 16 hr
  Ca^2+ in cytosol and mitochondria, compound alone: did not affect Ca^2+ influx
HT22 cells [5]; pretreatment 1 hr, co-incubation with RSL3
  Ca^2+ levels in cytosol and mitochondria with RSL3: maintained basal Ca^2+ levels
[6]; 16 hr
  protection against RSL3-induced cell death, no FCCP pretreatment: strong and equivalent protection
[6]; FCCP 5 μM 24 hr, then 16 hr
  protection against RSL3 after FCCP pretreatment (mitochondria-depleted cells): failed to protect; also recorded: did not protect
[6]; [7]
  cell numbers after FCCP pretreatment, co-treatment with compound: did not further change the cell numbers
